The values that follow come from PMC10018782, “Citrus β-carotene hydroxylase 2 (BCH2) participates in xanthophyll synthesis by catalyzing the hydroxylation of β-carotene and compensates for BCH1 in citrus carotenoid metabolism” (Horticulture Research, 2022).

What all share (test): functional complementation in beta-carotene-accumulating E. coli, HPLC of carotenoids
Common to all, as to type: cell-based
What all share (conditions): E. coli BL21(DE3) with pACCAR16ΔcrtX, 16 °C, 16 h

In one test the target is T1, CsBCH1 (Citrus sinensis, UniProt Q0QVY5).
T1 construct: gene Chyb; full ORF in pHIS8 (His tag), E. coli BL21(DE3)
T1 sequence (Q0QVY5 1-311): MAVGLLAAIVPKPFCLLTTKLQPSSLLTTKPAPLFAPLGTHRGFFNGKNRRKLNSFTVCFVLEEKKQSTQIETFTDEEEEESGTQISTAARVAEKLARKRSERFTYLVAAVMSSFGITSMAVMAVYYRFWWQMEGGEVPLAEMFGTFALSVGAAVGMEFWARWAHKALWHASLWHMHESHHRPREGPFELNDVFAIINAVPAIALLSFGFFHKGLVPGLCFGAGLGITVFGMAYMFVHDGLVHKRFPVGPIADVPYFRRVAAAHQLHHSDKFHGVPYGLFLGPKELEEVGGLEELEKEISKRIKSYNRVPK

Another test has as its target T2, CsBCH2b (Citrus sinensis, UniProt A0ACB8LPZ5).
T2 construct: gene KPL71_006397; full ORF in pHIS8 (His tag), E. coli BL21(DE3); allele found in pummelo and sweet orange, two non-synonymous sites versus CsBCH2a

The target in the next test is T3, CsBCH2a (Citrus sinensis, UniProt A0ACB8LPZ5).
T3 construct: gene KPL71_006397; full ORF in pHIS8 (His tag), E. coli BL21(DE3); allele identical in mandarin and sweet orange, two non-synonymous sites versus CsBCH2b
T3 sequence (A0ACB8LPZ5 entry or part of it): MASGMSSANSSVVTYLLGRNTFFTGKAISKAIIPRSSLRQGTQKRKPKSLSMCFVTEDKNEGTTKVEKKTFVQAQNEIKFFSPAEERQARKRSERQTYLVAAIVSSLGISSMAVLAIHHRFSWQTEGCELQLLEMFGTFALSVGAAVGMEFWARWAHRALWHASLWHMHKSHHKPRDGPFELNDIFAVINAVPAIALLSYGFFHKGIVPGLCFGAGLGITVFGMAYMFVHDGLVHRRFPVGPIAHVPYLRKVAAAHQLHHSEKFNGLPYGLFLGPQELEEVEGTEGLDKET

T2 sequence (A0ACB8LPZ5 entry or part of it): as above

As for `CC1=C(/C=C/C(C)=C/C=C/C(C)=C/C=C/C=C(C)/C=C/C=C(C)/C=C/C2=C(C)CCCC2(C)C)C(C)(C)CCC1` [β-carotene], the “functional complementation in beta-carotene-accumulating E. coli, HPLC of carote” value was “CsBCH1 effectively hydroxylated the two β-rings of β-carotene” on CsBCH1; “CsBCH2a and CsBCH2b hydroxylated β-carotene to generate only β-cryptoxanthin in E. coli” on CsBCH2b; “CsBCH2a and CsBCH2b hydroxylated β-carotene to generate only β-cryptoxanthin in E. coli” at CsBCH2a.
For `CC1=C(/C=C/C(C)=C/C=C/C(C)=C/C=C/C=C(C)/C=C/C=C(C)/C=C/C2=C(C)C[C@@H](O)CC2(C)C)C(C)(C)CCC1` [β-cryptoxanthin], the “functional complementation in beta-carotene-accumulating E. coli, HPLC of carote” value on CsBCH1 (intermediate formed in the cells, hydroxylated on to zeaxanthin) is “mono-hydroxylated intermediate β-cryptoxanthin and the di-hydroxylated product zeaxanthin”.
